According to patent US10669272B2, “Substituted naphthyridinone compounds useful as T cell activators” (BRISTOL-MYERS SQUIBB COMPANY, priority 2018, dated 2020):
Where two headings read alike, the source gives them in different places.

Key:
[1] = biological target: T1, human DGKα (Homo sapiens, UniProt P23743); assay: DGKα LIPGLO assay (extruded liposome substrate), in vitro DGK inhibition; assay type: biochemical; conditions: read-out: DGKa LIPGLO IC50
T1 construct: TVMV protease cleavage site (C); Hexa-His (C); made in house; host or cells: Sf9 insect cells (baculovirus, Bac-to-Bac)

[2] = tested on: naïve human CD8 T cells; assay: Human CD8 T cells IFN-γ assay; assay type: cell-based; conditions: read-out: HuCD8 INFG Normalized EC50;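 further: Naïve human CD8 T cells stimulated with plate-bound anti-CD3 and soluble anti-CD28, IFN-γ in supernatant quantified by AlphaLISA and converted to pg/mL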
[3] = biological target: T2, human DGKζ (Homo sapiens, UniProt Q13574); assay: DGKζ LIPGLO assay (extruded liposome substrate), in vitro DGK inhibition; assay type: biochemical; conditions: read-out: DGKz LIPGLO IC50
T2 construct: TVMV protease cleavage site (C); Hexa-His (C); made in house; host or cells: Sf9 insect cells (baculovirus, Bac-to-Bac)

[4] = tested on: Human venous whole blood; assay: Human whole blood IFN-γ assay; assay type: cell-based; conditions: human whole blood, read-out: INFg Whole Blood Normalized Agonist EC50;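 further: blood from healthy donors exposed to compound for 1 h before stimulation with anti-CD3 and anti-CD28 at 1 µg/mL each, IFN-γ quantified in supernatant by AlphaLISA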
[5] = normalized to 3 μM reference compound with anti-CD3 plus anti-CD28 as 100% activation
[6] = Homo sapiens, T-cell, 20 h, normalized to 3 μM reference compound with anti-CD3 plus anti-CD28 as 100% activation
[7] = Homo sapiens, 24 h, normalized to 3 μM reference compound with anti-CD3 plus anti-CD28 as 100% activation
[8] = Homo sapiens, T-cell, 20 h, naïve human CD8 T cells, anti-CD3 plus anti-CD28, 3 μM reference compound = 100% activation
[9] = Homo sapiens, 24 h, anti-CD3 plus anti-CD28, 24 hours, 3 μM reference compound = 100% activation

T1 sequence (P23743 with tags, fused parts or gaps): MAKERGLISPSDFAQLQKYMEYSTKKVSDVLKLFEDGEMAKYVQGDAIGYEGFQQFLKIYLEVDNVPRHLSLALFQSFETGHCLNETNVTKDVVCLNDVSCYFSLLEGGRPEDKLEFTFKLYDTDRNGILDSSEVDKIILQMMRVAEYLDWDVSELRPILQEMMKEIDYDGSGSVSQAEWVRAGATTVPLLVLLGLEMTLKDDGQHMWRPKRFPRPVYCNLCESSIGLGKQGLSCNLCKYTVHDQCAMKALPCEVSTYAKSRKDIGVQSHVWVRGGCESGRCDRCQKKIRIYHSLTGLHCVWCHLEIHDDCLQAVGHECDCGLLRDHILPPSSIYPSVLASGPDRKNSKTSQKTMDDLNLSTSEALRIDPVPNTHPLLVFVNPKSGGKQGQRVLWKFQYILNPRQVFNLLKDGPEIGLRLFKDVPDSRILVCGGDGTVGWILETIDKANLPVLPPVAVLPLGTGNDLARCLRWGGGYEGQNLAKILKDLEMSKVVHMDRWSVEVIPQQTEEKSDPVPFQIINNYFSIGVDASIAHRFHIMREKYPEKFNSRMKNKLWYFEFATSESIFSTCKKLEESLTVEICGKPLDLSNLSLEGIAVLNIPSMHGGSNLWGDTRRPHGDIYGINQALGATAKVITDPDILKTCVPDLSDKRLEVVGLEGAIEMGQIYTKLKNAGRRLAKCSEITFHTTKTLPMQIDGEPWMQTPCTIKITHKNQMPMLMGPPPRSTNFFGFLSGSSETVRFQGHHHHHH
T2 sequence (Q13574 with tags, fused parts or gaps isoform Q13574-4): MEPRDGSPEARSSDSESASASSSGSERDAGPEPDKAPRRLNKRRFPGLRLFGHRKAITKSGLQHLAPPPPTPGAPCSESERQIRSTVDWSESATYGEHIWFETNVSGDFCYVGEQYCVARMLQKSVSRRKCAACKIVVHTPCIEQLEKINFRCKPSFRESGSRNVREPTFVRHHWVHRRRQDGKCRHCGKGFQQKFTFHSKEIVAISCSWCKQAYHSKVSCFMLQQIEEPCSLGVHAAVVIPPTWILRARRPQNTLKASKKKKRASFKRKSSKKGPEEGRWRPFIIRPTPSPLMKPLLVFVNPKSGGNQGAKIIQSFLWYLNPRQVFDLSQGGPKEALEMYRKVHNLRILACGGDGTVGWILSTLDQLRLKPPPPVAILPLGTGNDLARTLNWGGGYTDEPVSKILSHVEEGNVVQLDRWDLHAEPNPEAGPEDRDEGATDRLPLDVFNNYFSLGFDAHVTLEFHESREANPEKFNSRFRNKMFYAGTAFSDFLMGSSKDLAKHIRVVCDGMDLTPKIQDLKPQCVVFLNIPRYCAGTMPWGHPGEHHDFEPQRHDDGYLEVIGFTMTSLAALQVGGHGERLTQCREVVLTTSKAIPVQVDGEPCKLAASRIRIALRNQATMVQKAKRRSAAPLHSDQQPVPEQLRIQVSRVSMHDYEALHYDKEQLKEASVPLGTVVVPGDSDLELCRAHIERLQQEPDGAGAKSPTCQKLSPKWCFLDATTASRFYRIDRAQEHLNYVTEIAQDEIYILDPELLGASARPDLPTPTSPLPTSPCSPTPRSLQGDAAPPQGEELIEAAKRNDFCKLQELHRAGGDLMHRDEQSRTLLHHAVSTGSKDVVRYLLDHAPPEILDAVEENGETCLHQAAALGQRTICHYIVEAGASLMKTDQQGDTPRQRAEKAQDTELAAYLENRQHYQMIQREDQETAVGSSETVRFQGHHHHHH

IC50 ([1]; liposome (LIPGLO) assay) [nM] | IC50 ([3]; liposome (LIPGLO) assay) [nM] | IC50 ([1]; DGKα liposome (LIPGLO) assay) [nM] | IC50 ([3]; DGKζ liposome (LIPGLO) assay) [nM] | SMILES | EC50 [2, 5] [nM] | EC50 [4, 5] [nM] | EC50 [2, 6] [nM] | EC50 [4, 7] [nM] | EC50 [2, 8] [nM] | EC50 [4, 9] [nM]
190 | 29 |  |  | Cc1cccc(C(c2ccc(F)cc2)N2C[C@H](C)N(c3cc(=O)n(C)c4ccc(C#N)nc34)C[C@H]2C)n1 (single isomer, unassigned) [Example 203] | 32 | 290 |  |  |  | 
1200 | 940 |  |  | C[C@@H]1CN(c2cc(=O)n(C)c3ccc(C#N)nc23)[C@@H](C)CN1C(c1ccccc1)c1cccc(Cl)c1 (stereo partly drawn) [Example 282, 8-[(2S,5R)-4-[(3-chlorophenyl)(phenyl)methyl]-2,5-dimethylpiperazin-1-yl]-5-methyl-6-oxo-5,6-dihydro-1,5-naphthyridine-2-carbonitrile] |  |  | 69 | 3800 |  | 
1800 | 1300 |  |  | Cc1ccc(C(c2ccc(F)cc2)N2C[C@H](C)N(c3cc(=O)n(C)c4ccc(C#N)nc34)C[C@H]2C)cc1 (stereo partly drawn) [Example 295, 8-[(2S,5R)-4-[(4-fluorophenyl)(4-methylphenyl)methyl]-2,5-dimethylpiperazin-1-yl]-5-methyl-6-oxo-5,6-dihydro-1,5-naphthyridine-2-carbonitrile] |  |  | 200 | 640 |  | 
3300 | 14000 |  |  | COc1cc(F)ccc1C(N1C[C@H](C)N(c2cc(=O)n(C)c3ccc(C#N)nc23)C[C@H]1C)C(C)(C)C (single isomer, unassigned) [Example 186] | 10000 | 20000 |  |  |  | 
58 | 1500 |  |  | [2H]C(C)(c1ccc(F)cc1)N1C[C@H](C)N(c2c(F)c(=O)n(C)c3ccc(C#N)nc23)C[C@H]1C (single isomer, unassigned) [Example 425] |  | 270 | 110 |  |  | 
1000 | 1000 |  |  | CCC(c1ccc(F)c(F)c1)N1C[C@H](C)N(c2cc(=O)n(C)c3ccc(C#N)nc23)C[C@H]1C (single isomer, unassigned) [Example 344] |  |  | 24 | 460 |  | 
260 | 1100 |  |  | C[C@@H]1CN(c2cc(=O)n(C)c3ccc(C#N)nc23)[C@@H](C)CN1Cc1ccc(Cl)cc1O [Example 244, 8-[(2S,5R)-4-[(4-chloro-2-hydroxyphenyl)methyl]-2,5-dimethylpiperazin-1-yl]-5-methyl-6-oxo-5,6-dihydro-1,5-naphthyridine-2-carbonitrile] |  |  | 110 | 1700 |  | 
100 | 100 |  |  | Cc1ccc(C(c2ccc(Cl)cn2)N2C[C@H](C)N(c3cc(=O)n(C)c4ccc(C#N)nc34)C[C@H]2C)cc1 (single isomer, unassigned) [Example 199] |  | 250 | 61 |  |  | 
1300 | 2700 |  |  | C[C@@H]1CN(c2cc(=O)n(C)c3ccc(C#N)nc23)[C@@H](C)CN1C(c1ccc(OC(F)(F)F)cc1)c1cccc(F)n1 (single isomer, unassigned) [Example 367] |  |  | 13 | 460 |  | 
 |  | 4400 | 1500 | Cc1ccc(C(c2ccc(Cl)cc2)N2CCN(c3c(C#N)c(=O)n(C)c4ccc(C#N)nc34)C[C@H]2C)cc1 (mixture of isomers) [Example 907] |  |  |  |  | 70 | 730
25000 | 8700 |  |  | COC(=O)C1CN(c2c(C#N)c(=O)n(C)c3ccc(Br)nc23)CCN1C(c1ccc(F)cc1)c1ccc(F)cc1 (stereo not drawn) [Example 49, Methyl 1-(bis(4-fluorophenyl)methyl)-4-(6-bromo-3-cyano-1-methyl-2-oxo-1,2-dihydro-1,5-naphthyridin-4-yl)piperazine-2-carboxylate] |  |  | 490 | 6300 |  | 
250 | 900 |  |  | CC[C@@H]1CN(c2cc(=O)n(C)c3ccc(C#N)nc23)[C@@H](C)CN1C(c1ccc(F)cc1)c1ncccc1F (stereo partly drawn) [Example 1104] | 56 |  |  | 300 |  | 
2700 | 58000 |  |  | CC(C)[C@H]1CN(c2c(C#N)c(=O)n(C)c3ccc(C#N)nc23)CCN1C(c1ccc(F)cc1)c1ccc(F)cc1 [Example 12, (S)-8-(4-(bis(4-fluorophenyl)methyl)-3-isopropylpiperazin-1-yl)-5-methyl-6-oxo-5,6-dihydro-1,5-naphthyridine-2,7-dicarbonitrile] |  |  | 10000 | 13000 |  | 
 |  | 1100 | 130 | C[C@@H]1CN(c2cc(=O)n(C)c3ccc(C#N)nc23)[C@@H](C)CN1C(c1ccc(F)cc1)c1nc(C(C)(C)C)no1 (stereo partly drawn) [Example 737] |  |  |  |  | 0.31 | 43
640 | 1400 |  |  | CC[C@@H]1CN(c2cc(=O)n(C)c3ccc(C#N)nc23)[C@@H](C)CN1C(c1ccc(F)cc1)c1ccc(C#N)cc1 (single isomer, unassigned) [Example 1102] |  |  | 31 | 220 |  | 
3100 | 840 |  |  | C[C@@H]1CN(c2cc(=O)n(C)c3ccc(C#N)nc23)[C@@H](C)CN1C(c1ccccc1)c1ccccc1Cl (stereo partly drawn) [Example 259, 8-[(2S,5R)-4-[(2-chlorophenyl)(phenyl)methyl]-2,5-dimethylpiperazin-1-yl]-5-methyl-6-oxo-5,6-dihydro-1,5-naphthyridine-2-carbonitrile] |  |  | 550 | 2100 |  | 
1700 | 3500 |  |  | C[C@@H]1CN(c2cc(=O)n(C)c3ccc(C#N)nc23)[C@@H](C)CN1Cc1cc(F)cc(F)c1 [Example 290, 8-[(2S,5R)-4-[(3,5-difluorophenyl)methyl]-2,5-dimethylpiperazin-1-yl]-5-methyl-6-oxo-5,6-dihydro-1,5-naphthyridine-2-carbonitrile] |  |  | 2000 | 7900 |  | 
1500 | 2400 |  |  | C[C@@H]1CN(c2cc(=O)n(C)c3ccc(C#N)nc23)[C@@H](C)CN1C(c1ccc(Cl)cc1)c1ccc(C#N)cc1 (stereo partly drawn) [Example 298, 8-((2S,5R)-4-((4-chlorophenyl)(4-cyanophenyl)methyl)-2,5-dimethylpiperazin-1-yl)-5-methyl-6-oxo-5,6-dihydro-1,5-naphthyridine-2-carbonitrile] |  |  | 29 | 570 |  | 
1900 | 1800 |  |  | CCc1ccc(C(c2cccc(F)c2)N2C[C@H](C)N(c3cc(=O)n(C)c4ccc(C#N)nc34)C[C@H]2C)nc1 (single isomer, unassigned) [Example 350] | 200 | 850 |  |  |  | 
50000 | 140000 |  |  | C[C@@H]1CN(c2c(Cl)c(=O)n(C)c3ccc(C#N)nc23)[C@@H](C)CN1C(c1ccccc1)c1ccc(F)cc1 (single isomer, unassigned) [Example 217] |  |  | 7800 | 20000 |  | 
15 | 740 |  |  | C[C@@H]1CN(c2cc(=O)n(C)c3ccc(C#N)nc23)[C@@H](C)CN1Cc1ccc(F)cc1 [Example 297, 8-[(2S,5R)-4-[(4-fluorophenyl)methyl]-2,5-dimethylpiperazin-1-yl]-5-methyl-6-oxo-5,6-dihydro-1,5-naphthyridine-2-carbonitrile] |  |  | 490 | 1500 |  | 
